Values of other authors, collected in patent US11169101B2, “Oligosaccharide compositions and methods of use thereof” (Kaleido Biosciences, Inc., priority 2018, dated 2021).

Conditions: administered in combination with lactulose

Q: With `CO[C@H]1/C=C/O[C@@]2(C)Oc3c(C)c(O)c4c(O)c(c5c(nc6cc(C)ccn65)c4c3C2=O)NC(=O)/C(C)=C\C=C\[C@H](C)[C@H](O)[C@@H](C)[C@@H](O)[C@@H](C)[C@H](OC(C)=O)[C@@H]1C` [rifaximin] as the molecule, how does the “reduction of episodes of OHE” value read?
A: The value was “approximately 50%”.
